Measured values published in patent publication US12479856B2, “Pharmaceutical compounds for the treatment of complement mediated disorders” (Achillion Pharmaceuticals, Inc., priority 2019, dated 2025).

Biological target: T1, Human complement C1s enzyme (Homo sapiens, UniProt P09871)
T1 construct: purified from human serum, Complement Technology, Inc; purchased Complement Technology, Inc; host or cells: human serum (plasma-derived natural protein)
T1 sequence (P09871 438-688 limits assumed): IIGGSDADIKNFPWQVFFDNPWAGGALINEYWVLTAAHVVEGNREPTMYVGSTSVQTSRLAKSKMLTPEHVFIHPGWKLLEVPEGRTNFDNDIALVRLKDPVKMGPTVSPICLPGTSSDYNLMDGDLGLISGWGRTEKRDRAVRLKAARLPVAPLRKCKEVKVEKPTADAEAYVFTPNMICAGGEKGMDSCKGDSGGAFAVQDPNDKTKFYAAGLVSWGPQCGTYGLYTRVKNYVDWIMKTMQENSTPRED
T1 sequence (P09871 16-437 partner limits assumed): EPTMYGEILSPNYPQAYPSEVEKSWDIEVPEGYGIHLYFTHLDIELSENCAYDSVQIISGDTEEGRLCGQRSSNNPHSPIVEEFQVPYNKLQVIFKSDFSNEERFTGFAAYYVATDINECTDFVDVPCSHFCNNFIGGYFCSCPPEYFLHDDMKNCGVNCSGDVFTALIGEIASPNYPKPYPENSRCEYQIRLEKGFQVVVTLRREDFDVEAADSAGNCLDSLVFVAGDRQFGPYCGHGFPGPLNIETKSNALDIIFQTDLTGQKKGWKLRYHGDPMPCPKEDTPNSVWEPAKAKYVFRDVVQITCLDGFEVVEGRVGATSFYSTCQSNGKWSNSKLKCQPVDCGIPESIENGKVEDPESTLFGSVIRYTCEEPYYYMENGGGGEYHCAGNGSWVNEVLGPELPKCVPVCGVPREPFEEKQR
Assay: Human C1s Enzyme Assay
Type: biochemical
Conditions: Table 2; C1s purified from human serum, 1.16 nM; substrate Z-L-Lys-SBzl; read-out: C1s Protease Activity
Procedure: Example 4. Human C1s Enzyme Assay
Human complement C1s enzyme (purified from human serum, Complement Technology, Inc.) at 1.16 nM final concentration is incubated with test compound at various concentrations for 5 min at room temperature in 50 mM Tris, 1 M NaCl, pH 7.5. A synthetic substrate Z-L-Lys-SBzl and DTNB (Ellman's reagent) are added to final concentrations of 100 μM each. Absorbance at 405 nm (A405) is recorded at 30 second intervals for 30 min using a microplate spectrophotometer. IC50 values are calculated by nonlinear regression of complement C1s reaction rates as a function of test compound concentration.

Going from `N=C(N)c1csc(CNC(=O)[C@@H]2CCCN2C(=O)CCCc2ccc(Oc3ccccc3)cc2)c1` [Compound 53, (S)-N-((4-carbamimidoylthiophen-2-yl)methyl)-1-(4-(4-phenoxyphenyl)butanoyl)pyrrolidine-2-carboxamide] to `N=C(N)c1csc(CNC(=O)[C@@H]2CCCN2CCCC(=O)c2ccc(Oc3ccccc3)cc2)c1` [Compound 54, (S)-N-((4-carbamimidoylthiophen-2-yl)methyl)-1-(4-oxo-4-(4-phenoxyphenyl)butyl)pyrrolidine-2-carboxamide], the IC50 rises from less than 100 nM to greater than 1000 nM.

`NCc1csc(CNC(=O)[C@@H]2CCCN2C(=O)CNC(=O)c2ccc(Oc3ccccc3)cc2)c1` [Compound 55, (S)-N-((4-(aminomethyl)thiophen-2-yl)methyl)-1-((4-phenoxybenzoyl)glycyl)pyrrolidine-2-carboxamide] and `CC(N)c1csc(CNC(=O)[C@@H]2CCCN2C(=O)CNC(=O)c2ccc(Oc3ccccc3)cc2)c1` (stereo partly drawn) [Compound 60, (2S)-N-((4-(1-aminoethyl)thiophen-2-yl)methyl)-1-((4-phenoxybenzoyl)glycyl)pyrrolidine-2-carboxamide] cannot be ordered by IC50: greater than 1000 nM for the first, greater than 1000 nM for the second.

`N=C(N)c1csc(CNC(=O)[C@@H]2CCCN2C(=O)CNC(=O)c2ccc(Cc3ccccc3)cc2)c1` [Compound 56, (S)-1-((4-benzylbenzoyl)glycyl)-N-((4-carbamimidoylthiophen-2-yl)methyl)pyrrolidine-2-carboxamide] and `CC(c1ccccc1)c1ccc(C(=O)NCC(=O)N2CCC[C@H]2C(=O)NCc2cc(C(=N)N)cs2)cc1` (stereo partly drawn) [Compound 58, (2S)-N-((4-carbamimidoylthiophen-2-yl)methyl)-1-((4-(1-phenylethyl)benzoyl)glycyl)pyrrolidine-2-carboxamide] cannot be ordered by IC50: less than 100 nM for the first, less than 100 nM for the second.

`CC(C)(c1ccccc1)c1ccc(C(=O)NCC(=O)N2CCC[C@H]2C(=O)NCc2cc(C(=N)N)cs2)cc1` [Compound 57, (S)-N-((4-carbamimidoylthiophen-2-yl)methyl)-1-((4-(2-phenylpropan-2-yl)benzoyl)glycyl)pyrrolidine-2-carboxamide] and `CCCc1ccc(C(=O)NCC(=O)N2CCC[C@H]2C(=O)NCc2cc(C(=N)N)cs2)cc1` [Compound 72, (S)-N-((4-carbamimidoylthiophen-2-yl)methyl)-1-((4-propylbenzoyl)glycyl)pyrrolidine-2-carboxamide] cannot be ordered by IC50: less than 100 nM for the first, less than 100 nM for the second.

First: N=C(N)c1csc(CNC(=O)[C@@H]2CCCN2C(=O)NNC(=O)c2ccc(Oc3ccccc3)cc2)c1 [Compound 59, (S)-N-((4-carbamimidoylthiophen-2-yl)methyl)-1-(2-(4-phenoxybenzoyl)hydrazine-1-carbonyl)pyrrolidine-2-carboxamide]
Second: CO[C@@H]1C[C@H](C(=O)NCc2cc(C(=N)N)cs2)[C@H](C(=O)CNC(=O)c2ccc(Oc3ccccc3)cc2)C1 [Compound 61, N-(2-((1R,2S,4S)-2-(((4-carbamimidoylthiophen-2-yl)methyl)carbamoyl)-4-methoxycyclopentyl)-2-oxoethyl)-4-phenoxybenzamide]
The IC50 of the first is lower: 100 to 1000 nM for the first, greater than 1000 nM for the second. The first is the more potent here.

Compared with `CO[C@@H]1C[C@H](C(=O)CNC(=O)c2ccc(Oc3ccccc3)cc2)[C@@H](C(=O)NCc2cc(C(=N)N)cs2)C1` [Compound 62, N-(2-((1S,2S,4R)-2-(((4-carbamimidoylthiophen-2-yl)methyl)carbamoyl)-4-methoxycyclopentyl)-2-oxoethyl)-4-phenoxybenzamide], `N/C(=N\O)c1csc(CNC(=O)[C@@H]2CC3(CN2C(=O)CNC(=O)c2ccc(Oc4ccccc4)cc2)OCCO3)c1` [Compound 66, (S,Z)-N-((4-(N′-hydroxycarbamimidoyl)thiophen-2-yl)methyl)-7-((4-phenoxybenzoyl)glycyl)-1,4-dioxa-7-azaspiro[4.4]nonane-8-carboxamide] is lower in IC50: greater than 1000 nM for the first, less than 100 nM for the second.

Going from `N#C/N=C(\N)c1csc(CNC(=O)[C@@H]2CC3(CN2C(=O)CNC(=O)c2ccc(Oc4ccccc4)cc2)OCCO3)c1` [Compound 63, (S,Z)-N-((4-(N′-cyanocarbamimidoyl)thiophen-2-yl)methyl)-7-((4-phenoxybenzoyl)glycyl)-1,4-dioxa-7-azaspiro[4.4]nonane-8-carboxamide] to `N=C(N)NOCCNC(=O)[C@@H]1CC2(CN1C(=O)CNC(=O)c1ccc(Oc3ccccc3)cc1)OCCO2` [Compound 65, (S)-N-(2-(guanidinooxy)ethyl)-7-((4-phenoxybenzoyl)glycyl)-1,4-dioxa-7-azaspiro[4.4]nonane-8-carboxamide], the IC50 rises from less than 100 nM to greater than 1000 nM. The first is the more potent here.

First: Cc1cc(C(=O)NCC(=O)N2CC3(C[C@H]2C(=O)NCc2cc4c(N)nccc4s2)OCCO3)ccc1Oc1ccccc1 [Compound 64, (S)-N-((4-aminothieno[3,2-c]pyridin-2-yl)methyl)-7-((3-methyl-4-phenoxybenzoyl)glycyl)-1,4-dioxa-7-azaspiro[4.4]nonane-8-carboxamide]
Second: N=C(N)c1csc(CNC(=O)[C@@H]2CCCN2C(=O)CNC(=O)CCCOc2ccccc2)c1 [Compound 67, (S)-N-((4-carbamimidoylthiophen-2-yl)methyl)-1-((4-phenoxybutanoyl)glycyl)pyrrolidine-2-carboxamide]
The IC50 of the first is higher: 100 to 1000 nM for the first, less than 100 nM for the second. The second is the more potent here.

`N=C(N)c1csc(CNC(=O)[C@@H]2CCCN2C(=O)CNC(=O)CCCCOc2ccccc2)c1` [Compound 68, (S)-N-((4-carbamimidoylthiophen-2-yl)methyl)-1-((5-phenoxypentanoyl)glycyl)pyrrolidine-2-carboxamide] and `N=C(N)c1csc(CNC(=O)[C@@H]2CCCN2C(=O)CNC(=O)CCCCc2ccccc2)c1` [Compound 80, (S)-N-((4-carbamimidoylthiophen-2-yl)methyl)-1-((5-phenylpentanoyl)glycyl)pyrrolidine-2-carboxamide] cannot be ordered by IC50: less than 100 nM for the first, less than 100 nM for the second.

`CN(C)CCCC(=O)NCC(=O)N1CCC[C@H]1C(=O)NCc1cc(C(=N)N)cs1` [Compound 69, (S)-N-((4-carbamimidoylthiophen-2-yl)methyl)-1-((4-(dimethylamino)butanoyl)glycyl)pyrrolidine-2-carboxamide] and `CN(C)CCCCC(=O)NCC(=O)N1CCC[C@H]1C(=O)NCc1cc(C(=N)N)cs1` [Compound 70, (S)-N-((4-carbamimidoylthiophen-2-yl)methyl)-1-((5-(dimethylamino)pentanoyl)glycyl)pyrrolidine-2-carboxamide] cannot be ordered by IC50: greater than 1000 nM for the first, greater than 1000 nM for the second.

Going from `CN(C)CCCCCC(=O)NCC(=O)N1CCC[C@H]1C(=O)NCc1cc(C(=N)N)cs1` [Compound 71, (S)-N-((4-carbamimidoylthiophen-2-yl)methyl)-1-((6-(dimethylamino)hexanoyl)glycyl)pyrrolidine-2-carboxamide] to `CCCCCCc1ccc(C(=O)NCC(=O)N2CCC[C@H]2C(=O)NCc2cc(C(=N)N)cs2)cc1` [Compound 75, (S)-N-((4-carbamimidoylthiophen-2-yl)methyl)-1-((4-hexylbenzoyl)glycyl)pyrrolidine-2-carboxamide], the IC50 falls from greater than 1000 nM to less than 100 nM.

`CCCCc1ccc(C(=O)NCC(=O)N2CCC[C@H]2C(=O)NCc2cc(C(=N)N)cs2)cc1` [Compound 73, (S)-1-((4-butylbenzoyl)glycyl)-N-((4-carbamimidoylthiophen-2-yl)methyl)pyrrolidine-2-carboxamide] and `CCCCCc1ccc(C(=O)NCC(=O)N2CCC[C@H]2C(=O)NCc2cc(C(=N)N)cs2)cc1` [Compound 74, (S)-N-((4-carbamimidoylthiophen-2-yl)methyl)-1-((4-pentylbenzoyl)glycyl)pyrrolidine-2-carboxamide] cannot be ordered by IC50: less than 100 nM for the first, less than 100 nM for the second.

First: CCOc1ccc(C(=O)NCC(=O)N2CCC[C@H]2C(=O)NCc2cc(C(=N)N)cs2)cc1 [Compound 76, (S)-N-((4-carbamimidoylthiophen-2-yl)methyl)-1-((4-ethoxybenzoyl)glycyl)pyrrolidine-2-carboxamide]
Second: CCCOc1ccc(C(=O)NCC(=O)N2CCC[C@H]2C(=O)NCc2cc(C(=N)N)cs2)cc1 [Compound 77, (S)-N-((4-carbamimidoylthiophen-2-yl)methyl)-1-((4-propoxybenzoyl)glycyl)pyrrolidine-2-carboxamide]
The IC50 of the first is higher: 100 to 1000 nM for the first, less than 100 nM for the second. The second is the more potent here.

`CCCCOc1ccc(C(=O)NCC(=O)N2CCC[C@H]2C(=O)NCc2cc(C(=N)N)cs2)cc1` [Compound 78, (S)-1-((4-butoxybenzoyl)glycyl)-N-((4-carbamimidoylthiophen-2-yl)methyl)pyrrolidine-2-carboxamide] and `CCCCCOc1ccc(C(=O)NCC(=O)N2CCC[C@H]2C(=O)NCc2cc(C(=N)N)cs2)cc1` [Compound 79, (S)-N-((4-carbamimidoylthiophen-2-yl)methyl)-1-((4-(pentyloxy)benzoyl)glycyl)pyrrolidine-2-carboxamide] cannot be ordered by IC50: less than 100 nM for the first, less than 100 nM for the second.
